We go through two compounds from patent US9883675B2, “Method for controlling pests” (SUMITOMO CHEMICAL COMPANY, LIMITED, priority 2013, dated 2018).

This assay deals with Diamondback moth (Plutella xylostella). The assay is described as follows: Test Example 1: Japanese radish seed treatment, mortality of Diamondback moth larvae. The class given is in vivo. The following applies: 48 h, average of two replications; for mortality at 0.01 mg: dose 0.01 mg/1 grain of seed; for mortality at 0.2 mg: dose 0.2 mg/1 grain of seed. As for the experimental part:
Each of the present fused heterocyclic compounds 3, 4, 5, 9, 15, 16, 17, 18, 19, 20, 22, 25, 72, 74, 85, 130, 399, 409, 414, 419, 443, 444, 445, 464 and 467 was dissolved in acetone (available from Wako Pure Chemical Industries, Ltd.) containing 5% (W/V) SOLGEN TW-20 (available from Daiichi-Kogyo Seiyaku Co. Ltd.) so as to give a prescribed concentration, and to prepare the testing solution.
Nine (9) grains of the Japanese raddish (Raphanus sativas var. longipinnatus) were placed in a 2 ml volume polypropylene microtube (manufactured by As One Co.) and thereto was added 18 μl of the above testing solution and the seeds in the microtube were shaken and stirred on Stirrer (Trade name: VORTEX-GENIE2, manufactured by Scientific Industries, Inc.). After the testing solution was spread uniformly to the whole seed, the seeds were allowed to air dry.
To a 90 ml volume of plastic cup filled with ten (10) g of culture soil (Trade name: Aisai No. 1; available from Katakura Chikkarin Co., Ltd.) was added water (5 ml) and thereto was seeded three (3) grains of the above seeds.
At four days after the seeding, Diamondback moth (Plutella xylostella) at the third instar larval stages were released in a ratio of 10 (ten) heads of insects per the cup, and then the cups were covered with nylon gauze and covered with a lid (hereinafter, referred to as “treated group”).
On the other hand, Japanese raddish was seeded by the similar procedures to the treated group except that the present fused heterocyclic compound was not dissolved in acetone (available from Wako Pure Chemical Industries, Ltd.) containing 5% (W/V) SOLGEN TW-20 (available from Daiichi-Kogyo Seiyaku Co. Ltd.), and the larvae were released, and the cups were covered with a lid (hereinafter, referred to as “Untreated group”).
At two days after the release, the surviving and death of the larvae were observed and on basis of the results of the observation, the mortalities of both groups were calculated by the following equation 1), respectively. Two replication tests were performed on each group. The average value is shown below. Mortality (%)=(Total number of […])/Total number of Tested insects×100 Equation 1)

The mark [1] stands for this setting: Diamondback moth third instar larvae released 4 days after seeding, observed 2 days after release.
The mark [2] stands for this setting: third instar larvae released four days after seeding, observed two days after release.

What is called mortality is the percentage killed.

For the compound `CCS(=O)(=O)c1cccnc1-c1nc2cc(C(F)(F)C(F)(F)F)cnc2o1` [Present fused heterocyclic compound 464, 2-(3-Ethylsulfonylpyridin-2-yl)-6-pentafluoroethyl-oxazolo[5,4-b]pyridine], under setting [1], the mortality at 0.01 mg is 100% and the mortality at 0.2 mg amounted to 100%.
As to `CCS(=O)(=O)c1cccnc1-c1nc2cc(C(F)(F)C(F)(F)F)ccc2o1` [Present fused heterocyclic compound 467, 2-(3-Ethylsulfonylpyridin-2-yl)-5-pentafluoroethyl-benzoxazole], under setting [2], the mortality at 0.01 mg came to 100% and the mortality at 0.2 mg is 100%.
